Assay: zone of inhibition activity
Format: cell-based
Conditions: compared with zn bacitracin

In the case of Cu-zn bacitrate, the “zone of inhibition activity” value is reported as “greater zone of inhibition activity than zn bacitracin”.

From US20140248221A1, “COMPOSITIONS FOR ORAL USE AND METHODS FOR TREATING THE ORAL MUCOSA, LIPS, AND PERIORAL REGIONS” (JR CHEM, LLC, priority 2011, published 2014)
